Tests used:
mammalian cells = experiment: Membrane permeability, shown by incubating cells with the dye and fluorescence imaging; format: cell-based; settings: simple incubation with the dye
Method: (§1) As a representative example for the labeling of a SNAP-tag fusion with BG-Sir650, the labeling and fluorescence imaging of SNAP-Cep41 (microtubule binding protein) fusion protein in U2OS cells is described. SNAP-Cep41 was expressed from episomal pEBTet plasmid encoding puromycin resistance under a doxycycline inducible promoter in U2OS cells. Prior to induction of expression, cells were selected by growing them in complete Dulbecco's Modified Eagle's Medium (DMEM) with 1 μg/ml puromycin for at least 1.5 weeks. SNAP-Cep41 fusion protein expression was induced for 48 h by adding to complete DMEM grow medium doxycycline at final concentration of 0.1 μg/ml before staining procedure. Living cells were stained by replacing old media with complete DMEM growth media containing 5 μM BG-SiR650, and incubated for 30 min at 37° C. in 5% CO2 incubator. Cells were washed two times with Hank's Buffered Salt Solution (HBSS) for 5 min and once with media for 1 h. Before imaging, growth media was replaced with HBSS. Images (FIG. 2A) were acquired on a confocal fluorescence microscope as z-stacks and presented as maximum intensity projections. For the imaging of fixed cells, living cells were labeled with 1 μM BG-Sir650 for 30 min at 37° C. […] Images (FIG. 2B) were acquired on a confocal fluorescence microscope as z-stack and presented as maximum intensity projections. […]

SNAP-tag fusion proteins = experiment: Live cell labeling of SNAP-tag fusion proteins, fluorescence imaging; format: cell-based; settings: living mammalian cells, incubation with dye
Method: as §1

Question: `CN(C)c1ccc2c(c1)[Si](C)(C)C1=CC(=[N+](C)C)C=CC1=C2c1cc(C(=O)NCc2ccc(COc3nc(N)nc4[nH]cnc34)cc2)ccc1C(=O)[O-]` [SiR650-6BG] was tested. Which membrane permeability (mammalian cells) did it give?
Answer: excellent membrane permeability

Question: And the “specific labeling of SNAP-tag fusion proteins in living cells” value (SNAP-tag fusion proteins)?
Answer: permits the specific labeling of SNAP-tag fusion proteins

From patent publication US9346957B2, “Cell permeable, fluorescent dye” (École Polytechnique Fédérale de Lausanne (EPFL), priority 2011, dated 2016)
